Results on 20 compounds are retold here after patent publication US7947707B2, “Nitrogenated heterocyclic compound and pharmaceutical composition comprising the same” (Kissei Pharmaceutical Co., Ltd., priority 2005, dated 2011).

For assay [1], the target named is T1, xanthine oxidase (from buttermilk) (Bos taurus, UniProt P80457).
T1 construct: xanthine oxidase (from buttermilk; biozyme laboratories); purchased biozyme laboratories; host or cells: buttermilk (natural source)
In words: Xanthine oxidase inhibitory effect. It is filed as biochemical. Particulars: 100 μmol/L xanthine, 5 mU/mL enzyme; read-out: X.O. inhibition IC50. The protocol: Assay for inhibition of xanthine oxidase was performed in 100 μmol/L substrate concentration (final concentration), 5 mU/mL enzyme concentration (final concentration) and compounds of the present invention as test compounds which were prepared with xanthine oxidase (from buttermilk; biozyme laboratories), xanthine (Sigma) and phosphate-buffered saline (PBS). In addition, all test compounds were frozen for preservation in condition of 20 mmol/L DMSO solution and used for experiments after thawing at need. Method is following: after diluted solution of test compound was added to 90 μL of 11.1 mU/mL enzyme solution, the mixture was incubated for 10 minutes after mixing. To start reaction, 100 μL of 200 μmol/L substrate solution was added to there, 10 minutes later, the reaction was stopped by addition of 500 μL of 0.5 mol/L sulfuric acid, and then absorbance at […] was measured. Final concentration of test compound was a single concentration, 10 μmol/L in single well for initial screening and 6 concentrations, 10, 1 μmol/L, 100, 10, 1 nmol/L, 100 pmol/L in duplicate for assay to calculate 50% inhibitory concentration (IC50) which were used for assay. Percent inhibition was calculated according to the formula described below. Percent inhibition (%)=(A−B)/(A−C)×100
In formula, A means absorbance in wells without test compound, B means absorbance in wells with test compound, C means absorbance in blank wells.
IC50 value was calculated from percent inhibition in each concentration by nonlinear regression method.

The target in assay [2] is T2, HEK293 cells forced to express URAT1 (Homo sapiens, UniProt Q96S37).
T2 construct: host or cells: HEK293
T2 sequence (Q96S37 1-553): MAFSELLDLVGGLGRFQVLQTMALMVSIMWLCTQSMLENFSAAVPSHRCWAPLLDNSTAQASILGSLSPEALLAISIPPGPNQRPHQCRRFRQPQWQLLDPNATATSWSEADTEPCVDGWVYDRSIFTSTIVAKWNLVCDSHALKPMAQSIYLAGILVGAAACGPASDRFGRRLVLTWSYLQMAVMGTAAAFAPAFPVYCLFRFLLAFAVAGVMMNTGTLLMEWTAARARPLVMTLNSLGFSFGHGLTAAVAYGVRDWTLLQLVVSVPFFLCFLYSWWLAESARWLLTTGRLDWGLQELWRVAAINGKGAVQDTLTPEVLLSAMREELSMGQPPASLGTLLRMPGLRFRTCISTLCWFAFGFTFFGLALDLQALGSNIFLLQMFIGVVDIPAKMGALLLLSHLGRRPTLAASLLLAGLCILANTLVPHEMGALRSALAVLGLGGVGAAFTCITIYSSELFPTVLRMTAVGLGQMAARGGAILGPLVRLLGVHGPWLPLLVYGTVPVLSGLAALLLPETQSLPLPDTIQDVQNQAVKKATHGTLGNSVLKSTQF
The experiment in a line: URAT1 inhibitory effect, [8-14C] uric acid uptake. It is filed as cell-based. The conditions noted are these: test compound 100 μmol/L, 20 μmol/L uric acid, 5 minutes uptake. The source says: DMEM containing 10% FBS (supplemented with 0.05% geneticin, Nissui Pharmaceutical Co., Ltd.), HEK293 cells forced to express URAT1 (HCS (Human cell Systems), (Fuji Biomedix)), HBSS as washing buffer and HBSS substituted with Na-gluconate (NaCl in HBSS was substituted with Na-gluconate) were used for assay. [8-^14C] uric acid (moravek) was used as an uric acid reagent and added to assay buffer at 20 μmol/L as a final concentration. Compounds of the present invention were used as a test compound, 20 mmol/L stock solution of each test compound (DMSO solution) was diluted appropriately, and then the diluted test compound solution was added to assay buffer at 100 μmol/L as a final concentration including 0.5% final concentration of DMSO.
To prepare assay plates, at first, cells on subculture petri dish were peeled off using treatment of 0.05% trypsin-EDTA solution, and then seeded on Biocoat Poly-D-Lysine Cellware 24 well plate (BECTON DICKINSON) at a density of 2×10^5 cells/well and cultured for 2 days.
For the uptake study, at first, culture medium was removed by aspiration and cells were washed twice with HBSS (37° C.), then the buffer was replaced with 1 mL of assay buffer (37° C.). Cells were pre-incubated for 10 minutes. And then, the buffer was removed by aspiration and 0.5 mL of radioisotope ligand solution incubated at 37° C. was added, then cells were incubated for 5 minutes. After uptake, radioisotope solution was removed by aspiration, and immediately cells were washed three times with ice-cold HBSS, followed by resolving by addition of 0.5 mL of 0.5 mol/L NaOH. Cell lysate solution was transferred to a vial or 24 well plate for Betaplate, and mixed with 0.5 mL of liquid scintillator (Optiphase ‘Super Mix’; Perkin Elmer). Radioisotope activity was measured (using Betaplate 1450). As mean count in control solution not including test compound was 100%, percent inhibition was calculated by determining percent decrease in mean count in solution including test compound from mean count in control solution.

For assay [3], the system named is potassium oxonate induced hyperuricemia. The experiment in a line: Blood hypouricemic effect, potassium oxonate induced hyperuricemia. It is filed as in vivo. The conditions noted are these: Rattus norvegicus, po, male SD rats, serum 2 hours after administration, read-out: Decrease (%) in UA concentration; for inhibition in vivo at 10 mg/kg: 10 mg/kg orally. The protocol:
Effect of compound of the present invention as a test compound was studied on potassium oxonate induced hyperuricemia with male 7-week-old SD rats (Charles River Japan) and potassium oxonate (Aldrich) suspended in 1% gum arabic solution. Test compound was suspended in 0.5% CMC-Na solution, and then administered orally. Dosing was 10 mg/kg or 50 mg/kg. All volume of administered solution was 10 mL/kg. Potassium oxonate 250 mg/kg was administered to dorsal region of rats subcutaneously, 1 hour later each test compound was administered orally. For control group, only 0.5% CMC-Na solution as a vehicle was administrated. At 2 hours after administration of test compounds or vehicle, blood was collected under ether anesthesia, and serum was separated according to general method. Treated number was 5 for each group.
Measurement of concentration of uric acid was conducted with following prepared reagents. The deproteinization reagent was prepared in the following manner; 100 g of sodium tungstate was added to a 2 L flask, and exactly 75 mL of 85% phosphoric acid and 500 mL of water were added to the flask equipped with a reflux condenser, and heated for an hour. After cooling, the resulting faint yellow-green solution was diluted to 1 L exactly. Sodium carbonate-urea reagent was prepared in the following manner; 14 g of anhydrous sodium carbonate and 14 g of urea were dissolved in water and final volume of the solution was adjusted to 100 mL exactly. Phosphotungstic coloring reagent was prepared in 4-fold dilution of deproteinzation reagent described above with water. UA standard solution (10 mg/dL: Kyokuto pharmaceutical industrial CO., LTD) was used as an uric acid standard solution, and then serially diluted uric acid standard solution with purified water was also used for standard curve.
Three hundred μL of serum or standard was added to 2.1 mL of purified water, and then 150 μL of deproteination reagent was also added to the solution, followed by mixing. After incubating for 20 minutes, the mixture was centrifuged at 3000 rpm for 10 minutes. Sodium carbonate-urea reagent (0.5 mL) was added to 1.5 mL of supernatant, and the mixture was incubated for 20 minutes. Next, after addition of 250 μL of coloring reagent, further incubation was carried over 15 minutes. Absorbance at 660 nm was measured, and concentration of uric acid was calculated with standard curve. Percent decrease in concentration of uric acid was calculated by following formula. Percent decrease in concentration of uric acid (%)=(A−B)/A×100
In formula, A means average of concentration of blood uric acid in control group, B means average of concentration of blood uric acid in test compounds-treated group.

T1 sequence (P80457 whole entry): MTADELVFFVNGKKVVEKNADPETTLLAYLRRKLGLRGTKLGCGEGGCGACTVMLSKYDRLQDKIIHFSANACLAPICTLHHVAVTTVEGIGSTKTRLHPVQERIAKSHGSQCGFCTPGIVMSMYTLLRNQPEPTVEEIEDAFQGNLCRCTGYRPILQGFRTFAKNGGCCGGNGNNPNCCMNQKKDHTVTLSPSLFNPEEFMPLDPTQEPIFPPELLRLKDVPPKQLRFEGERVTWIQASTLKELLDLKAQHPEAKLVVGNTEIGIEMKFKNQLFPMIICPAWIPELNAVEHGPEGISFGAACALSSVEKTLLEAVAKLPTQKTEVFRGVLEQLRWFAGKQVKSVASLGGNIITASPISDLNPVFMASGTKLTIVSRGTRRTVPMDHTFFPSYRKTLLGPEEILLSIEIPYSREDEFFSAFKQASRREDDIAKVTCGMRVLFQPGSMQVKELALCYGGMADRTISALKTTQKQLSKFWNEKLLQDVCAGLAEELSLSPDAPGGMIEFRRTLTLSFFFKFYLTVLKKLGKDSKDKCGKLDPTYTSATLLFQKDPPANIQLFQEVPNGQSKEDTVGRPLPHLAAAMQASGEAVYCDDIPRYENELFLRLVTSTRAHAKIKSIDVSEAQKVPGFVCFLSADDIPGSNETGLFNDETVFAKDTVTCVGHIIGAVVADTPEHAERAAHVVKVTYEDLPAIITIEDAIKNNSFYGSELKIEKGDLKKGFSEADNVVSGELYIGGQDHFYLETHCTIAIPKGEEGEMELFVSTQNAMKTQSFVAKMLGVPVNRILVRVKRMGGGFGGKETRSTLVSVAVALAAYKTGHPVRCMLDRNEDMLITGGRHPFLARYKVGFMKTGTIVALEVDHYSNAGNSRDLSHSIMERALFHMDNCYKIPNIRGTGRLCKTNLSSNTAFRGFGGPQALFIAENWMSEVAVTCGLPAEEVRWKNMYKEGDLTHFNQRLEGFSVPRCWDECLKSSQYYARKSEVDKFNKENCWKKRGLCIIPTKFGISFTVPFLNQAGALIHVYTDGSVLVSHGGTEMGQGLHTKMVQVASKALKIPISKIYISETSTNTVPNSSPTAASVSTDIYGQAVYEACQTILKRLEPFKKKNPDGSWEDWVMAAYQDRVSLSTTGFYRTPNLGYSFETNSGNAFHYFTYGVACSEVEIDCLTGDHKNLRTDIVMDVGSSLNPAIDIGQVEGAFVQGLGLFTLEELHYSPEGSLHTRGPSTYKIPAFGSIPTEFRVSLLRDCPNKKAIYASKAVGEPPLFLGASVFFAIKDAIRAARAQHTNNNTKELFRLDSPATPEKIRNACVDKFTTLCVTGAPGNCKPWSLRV

Take `N#Cc1cn(-c2ccc(C(=O)O)cc2)cc1-c1cccs1` [XO-B401]: the IC50 (as a rule, the concentration at which inhibition is half-maximal) in assay [1] was 5.98 nM. Further, testing at 100 µM in assay [2] gave an inhibition of 59.5%. Besides, in assay [3], the inhibition in vivo at 10 mg/kg was 78.8%.

As to `Cc1ccsc1-c1cn(-c2ccc(C(=O)O)cc2)cc1C#N` [XO-B407], the IC50 in assay [1] was determined as 4.73 nM. The inhibition (usually the change of the read-out against control, counted positive when it falls) at 100 µM in assay [2] turned out to be 55.5%. Further, in assay [3], the inhibition in vivo at 10 mg/kg is 76.9%.

Consider `N#Cc1cn(-c2ccc(C(=O)O)cc2)cc1-c1ccccc1C(F)(F)F` [XO-B412], for which the IC50 in assay [1] came out at 6.38 nM. This compound yielded an inhibition at 100 µM in assay [2] of 50.5%.

Turning to `N#Cc1cn(-c2ccc(C(=O)O)cc2)cc1-c1ccsc1` [XO-B418], the IC50 in assay [1] is 4.63 nM. In addition, in assay [2], at 100 µM the inhibition was 62.6%. Further, the inhibition in vivo at 10 mg/kg in assay [3] is 79.1%.

Turning to `N#Cc1cn(-c2ccc(C(=O)O)cc2)cc1-c1ccc2c(c1)OCCO2` [XO-B434], the IC50 in assay [1] came to 3.82 nM. This compound yielded an inhibition at 100 µM in assay [2] of 68.8%. Moreover, in assay [3], the inhibition in vivo at 10 mg/kg is 63.2%.

For the compound `N#Cc1cn(-c2ccc(C(=O)O)cc2)c2ccccc12` [XO-CH146], in assay [1], the IC50 stood at 50.5 nM. The same compound came in with an inhibition at 100 µM in assay [2] of 92.1%.

With `N#Cc1cn(-c2ccc(-c3nnn[nH]3)cc2)c2ccccc12` [XO-CH150], in assay [1], the IC50 came to 31.6 nM. In assay [2], this compound displayed an inhibition at 100 µM of 79.3%.

For `N#Cc1cn(-c2ccc(C(=O)O)cc2)c2ccc(Cl)cc12` [XO-CH160], in assay [1], the IC50 came to 26.7 nM. In addition, the inhibition at 100 µM in assay [2] came out at 93.8%.

Regarding `Cc1ccc2c(c1)c(C#N)cn2-c1ccc(C(=O)O)cc1` [XO-CH164], the IC50 in assay [1] came to 13.8 nM. The compound further returned an inhibition at 100 µM in assay [2] of 92.3%. In assay [3] (50 mg/kg orally), the inhibition in vivo at 50 mg/kg is 51.4%.

Consider `N#Cc1cn(-c2ccc(C(=O)O)cc2)c2ccc(F)cc12` [XO-CH168], for which the IC50 in assay [1] stood at 57.1 nM. The compound further displayed an inhibition at 100 µM in assay [2] of 92.5%.

In the case of `COc1ccc2c(c1)c(C#N)cn2-c1ccc(C(=O)O)cc1` [XO-CH183], in assay [1], the IC50 stood at 14.5 nM. Further, 100 µM produced 80.6% inhibition in assay [2].

Turning to `N#Cc1cn(-c2ccc(C(=O)O)cc2)c2cc3c(cc12)OCO3` [XO-CH199], in assay [1], the IC50 came to 49.1 nM. The compound further had an inhibition at 100 µM in assay [2] of 91.5%.

As to `N#Cc1cn(-c2ccc(C(=O)O)cc2)c2cccc(Cl)c12` [XO-CH201], the IC50 in assay [1] worked out at 50.5 nM. Besides, at 100 µM the inhibition in assay [2] was 88.6%.

As to `COc1ccc2c(C#N)cn(-c3ccc(C(=O)O)cc3)c2c1` [XO-CH207], the IC50 in assay [1] came out at 96.5 nM. This compound also showed an inhibition at 100 µM in assay [2] of 93.9%.

As for `N#Cc1cn(-c2ccc(C(=O)O)cc2)c2cc(Cl)ccc12` [XO-CH209], the IC50 in assay [1] was 60.8 nM. Also, at 100 µM the inhibition in assay [2] was 97.1%.

Turning to `COc1cccc2c1c(C#N)cn2-c1ccc(C(=O)O)cc1` [XO-CH211], the IC50 in assay [1] was determined as 16.4 nM. In assay [2], this compound yielded an inhibition at 100 µM of 81.1%.

Regarding `N#Cc1cn(-c2ccc(C(=O)O)cc2)c2ncc(Br)cc12` [XO-KT16], the IC50 in assay [1] is 99.2 nM. In assay [2], this compound had an inhibition at 100 µM of 92.4%.

As to `N#Cc1nn(-c2ccc(C(=O)O)cc2)c2ccccc12` [XO-KT30], the inhibition at 100 µM in assay [2] is 79.9%.

For `N#Cc1cn(-c2ccc(C(=O)O)cc2)nc1-c1cccs1` [XO-TT508], the IC50 in assay [1] worked out at 3.74 nM. Also, in assay [2], at 100 µM the inhibition was 67.1%.

For the compound `N#Cc1cn(-c2ccc(C(=O)O)cc2)nc1-c1ccsc1` [XO-TT571], in assay [1], the concentration for half-maximal inhibition (IC50) amounted to 4.79 nM. This compound also yielded an inhibition at 100 µM in assay [2] of 70.8%. Besides, the inhibition in vivo at 10 mg/kg in assay [3] is 62%.
